US20230416291A1, “HIGH-PURITY ß-NICOTINAMIDE MONONUCLEOTIDE (NMN) AND METHOD FOR PRODUCING SAME” (MIRAILAB BIOSCIENCE INC., priority 2020, published 2023)
Each block holds one compound with its values, some of them ahead of it.

Experiments:
[1] = Stability of high-purity βNMN on preservation, purity by LC-UV area normalization; type: physicochemical; conditions: for Purity, Average value: three samples
Experimental: In the area normalization method based on LC-UV, a NMN sample is dissolved in an appropriate amount of water and subjected to LC-UV measurement at a detection wavelength of 266 nm using an apparatus, for example, LC-30AD (manufactured by Shimadzu Corp.). The ratio (%) of the area of the main component to the total area of chromatogram peaks of the obtained sample can be regarded as the purity (%) of βNMN. In the area normalization method based on LC-UV, the high-purity βNMN obtained in the section (5) was dissolved in an appropriate amount of water and subjected to LC-UV measurement under the following conditions. • Apparatus name: LC-30AD (manufactured by Shimadzu Corp.) • Detection wavelength: 266 nm The ratio (%) of the area of the main component to the total area of chromatogram peaks of the obtained sample was regarded as the purity (%) of βNMN. As a result, the purity of the high-purity βNMN obtained in the section (5) was 99.2%. The high-purity βNMN obtained in the section (5) was preserved at 4° C., 25° C., or 40° C. and examined for its stability. Each sample was provided as three samples per condition. The purity of βNMN in each sample during preservation, 1 month later, 2 months later, and 3 months later was measured by the area normalization method based on LC-UV.

[2] = Stability test on NMN produced by a conventional method (Comparative Examples); type: physicochemical
Text: Results of a stability test on NMN produced by a conventional method (method involving neither the step IV nor the step V according to the present invention) are shown as Comparative Examples in Table 2.

Purity maintained on preservation ([1]; for 3 months at any temperature of 4° C., 25° C., and 40° C.): ≥ 99%
Purity, Average value ([1]; preserved at 4° C., 1 month later): 99.64%
Purity, Average value ([1]; preserved at 4° C., 2 months later): 99.51%
Purity, Average value ([1]; preserved at 4° C., 3 months later): 99.66%
Purity, Average value ([1]; preserved at 4° C., During preservation): 99.69%
Purity, Average value ([1]; preserved at 25° C., 1 month later): 99.26%
Purity, Average value ([1]; preserved at 25° C., 2 months later): 99.45%
Purity, Average value ([1]; preserved at 25° C., 3 months later): 99.57%
Purity, Average value ([1]; preserved at 25° C., During preservation): 99.69%
Purity, Average value ([1]; preserved at 40° C., 1 month later): 99.51%
Purity, Average value ([1]; preserved at 40° C., 2 months later): 99.27%
Purity, Average value ([1]; preserved at 40° C., 3 months later): 99.35%
Purity, Average value ([1]; preserved at 40° C., During preservation): 99.69%
Compound: NC(=O)c1ccc[n+]([C@@H]2O[C@H](COP(=O)([O-])O)[C@@H](O)[C@H]2O)c1 [high-purity βNMN, β-nicotinamide mononucleotide]

Purity ([2]; 4° C., 1 day later): 97.92%
Purity ([2]; 4° C., 2 days later): 97.78%
Purity ([2]; 4° C., 3 days later): 97.60%
Purity ([2]; 4° C., 7 days later): 97.57%
Purity ([2]; 4° C., 15 days later): 97.54%
Purity ([2]; 4° C., 30 days later): 97.26%
Purity ([2]; 4° C., At start of preservation): 97.94%
Purity ([2]; 25° C., 1 day later): 97.11%
Purity ([2]; 25° C., 2 days later): 96.04%
Purity ([2]; 25° C., 3 days later): 95.98%
Purity ([2]; 25° C., 7 days later): 90.55%
Purity ([2]; 25° C., 15 days later): 81.74%
Purity ([2]; 25° C., 30 days later): 65.66%
Purity ([2]; 25° C., At start of preservation): 97.94%
Compound: NC(=O)c1ccc[n+]([C@@H]2O[C@H](COP(=O)([O-])O)[C@@H](O)[C@H]2O)c1 [NMN produced by a conventional method, nicotinamide mononucleotide]
Stability in words ([2]; preserved at 4° C. for 30 days): able to maintain the purity obtained at the start of preservation for 30 days
